This is an account of results in ChEMBL document CHEMBL1201862, “PubChem BioAssay data set” (2004).

Molecules are shown by their SMILES. Active and inactive are the calls of the source.

Assay [1] addresses X-box-binding protein 1 (Homo sapiens, UniProt P17861). In kind it is functional, Cricetulus griseus.
Assay [2] deals with DNA damage-inducible transcript 3 protein (Mus musculus, UniProt P35639). It is filed as functional, Cricetulus griseus.
Assay [3] concerns the target Alkaline phosphatase, placental type (Homo sapiens, UniProt P05187). Description: human placental alkaline phosphatase inhibition – biochemical, luminescence, confirmation (AID 1512). It is filed as functional.
The target of assay [4] is Glyceraldehyde-3-phosphate dehydrogenase (Homo sapiens, UniProt P04406).
Chain of Glyceraldehyde-3-phosphate dehydrogenase (P04406 whole entry): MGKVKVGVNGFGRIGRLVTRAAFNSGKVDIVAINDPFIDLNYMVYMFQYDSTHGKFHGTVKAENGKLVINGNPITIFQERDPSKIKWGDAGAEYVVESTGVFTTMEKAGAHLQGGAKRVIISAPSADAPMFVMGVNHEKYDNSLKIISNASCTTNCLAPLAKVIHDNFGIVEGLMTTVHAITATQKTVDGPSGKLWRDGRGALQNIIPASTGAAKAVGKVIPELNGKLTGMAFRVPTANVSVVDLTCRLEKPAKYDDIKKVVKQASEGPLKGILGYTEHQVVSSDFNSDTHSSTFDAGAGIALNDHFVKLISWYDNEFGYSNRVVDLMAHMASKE
For assay [5], the target named is T1, Alkaline phosphatase, tissue-nonspecific isozyme (Homo sapiens, UniProt P05186).
T1 sequence (P05186 whole entry): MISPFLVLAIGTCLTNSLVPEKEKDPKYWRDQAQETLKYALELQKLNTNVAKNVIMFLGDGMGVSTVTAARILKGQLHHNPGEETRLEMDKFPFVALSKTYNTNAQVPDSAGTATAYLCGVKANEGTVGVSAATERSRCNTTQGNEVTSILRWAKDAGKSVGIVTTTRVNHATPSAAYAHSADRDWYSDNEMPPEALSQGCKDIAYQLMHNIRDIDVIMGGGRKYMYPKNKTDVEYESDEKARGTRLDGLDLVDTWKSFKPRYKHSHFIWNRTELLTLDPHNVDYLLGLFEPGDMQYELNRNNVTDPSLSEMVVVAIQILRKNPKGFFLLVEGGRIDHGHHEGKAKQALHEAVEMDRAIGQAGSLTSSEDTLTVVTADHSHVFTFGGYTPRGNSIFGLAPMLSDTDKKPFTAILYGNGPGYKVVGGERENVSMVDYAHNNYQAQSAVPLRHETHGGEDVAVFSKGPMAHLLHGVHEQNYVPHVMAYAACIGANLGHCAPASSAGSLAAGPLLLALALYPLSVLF
Description: potency against alkaline phosphatase TNAP – biochemical, luminescent, dose response, SAR follow-up (AID 1056).

Assay [6] concerns the target T2, Microphthalmia-associated transcription factor (Homo sapiens, UniProt O75030).
T2 sequence (O75030 whole entry): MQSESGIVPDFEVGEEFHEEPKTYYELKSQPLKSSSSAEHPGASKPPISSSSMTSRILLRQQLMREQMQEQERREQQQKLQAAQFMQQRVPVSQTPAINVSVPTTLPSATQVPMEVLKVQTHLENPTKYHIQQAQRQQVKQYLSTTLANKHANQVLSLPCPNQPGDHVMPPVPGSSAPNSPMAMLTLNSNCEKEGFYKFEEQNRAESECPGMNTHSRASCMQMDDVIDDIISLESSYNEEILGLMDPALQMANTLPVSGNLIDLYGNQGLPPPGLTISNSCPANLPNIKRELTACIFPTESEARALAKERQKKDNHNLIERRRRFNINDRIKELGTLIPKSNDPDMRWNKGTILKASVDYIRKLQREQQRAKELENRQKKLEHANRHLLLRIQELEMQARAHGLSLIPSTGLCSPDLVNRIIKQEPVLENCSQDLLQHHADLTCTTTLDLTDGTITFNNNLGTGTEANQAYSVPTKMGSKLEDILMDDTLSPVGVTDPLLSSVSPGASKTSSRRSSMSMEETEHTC
The experiment in a line: MITF Measured in Cell-Based System Using Plate Reader - 2084-01_Inhibitor_DoseNoFile_CherryPick_Activity_Set2. [Related pubchem assays (depositor defined):AID488944]. It is filed as functional.

Assay [7] addresses T2, Microphthalmia-associated transcription factor. Description: reducers of TRPM1 reporter luminescence, concentration series – cell-based, SK-MEL-5, cherry-picked, set 4, MITF inhibitor project, dose response (AID 493102). In kind it is functional.
Assay [8] shares this target. Description: reducers of TRPM1 reporter luminescence, concentration series – cell-based, SK-MEL-5, cherry-picked, set 3, MITF inhibitor project, dose response (AID 493073).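 Note: SK-MEL-5 melanoma cells with luciferase driven by the MITF target TRPM1 promoter.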 It is filed as functional.
A short description of assay [9]: NIH3T3 cell viability loss – ATP luminescence, mouse fibroblasts, counter-screen, dose response (AID 2010).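 Note: cells exposed to compound for about 90 hours before reading.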 It is filed as functional, cell-based.
The nature of assay [10]: viability of HCT116 lacking mutant beta-catenin – cell-based, human colon tumor, dose response (AID 1045).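 Note: HCT116 colon tumor cells with beta catenin knocked out; cells exposed to compound for 60 hours.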 In kind it is functional.
For assay [11], the target named is Nucleotide-binding oligomerization domain-containing protein 2 (Homo sapiens, UniProt Q9HC29). Description: inhibition of NOD2-driven NF-kB reporter – cell-based, luminescence, uHTS, HEK293 (AID 1566). It is filed as functional.
Chain of Nucleotide-binding oligomerization domain-containing protein 2 (Q9HC29 whole entry, the tested form may be a part): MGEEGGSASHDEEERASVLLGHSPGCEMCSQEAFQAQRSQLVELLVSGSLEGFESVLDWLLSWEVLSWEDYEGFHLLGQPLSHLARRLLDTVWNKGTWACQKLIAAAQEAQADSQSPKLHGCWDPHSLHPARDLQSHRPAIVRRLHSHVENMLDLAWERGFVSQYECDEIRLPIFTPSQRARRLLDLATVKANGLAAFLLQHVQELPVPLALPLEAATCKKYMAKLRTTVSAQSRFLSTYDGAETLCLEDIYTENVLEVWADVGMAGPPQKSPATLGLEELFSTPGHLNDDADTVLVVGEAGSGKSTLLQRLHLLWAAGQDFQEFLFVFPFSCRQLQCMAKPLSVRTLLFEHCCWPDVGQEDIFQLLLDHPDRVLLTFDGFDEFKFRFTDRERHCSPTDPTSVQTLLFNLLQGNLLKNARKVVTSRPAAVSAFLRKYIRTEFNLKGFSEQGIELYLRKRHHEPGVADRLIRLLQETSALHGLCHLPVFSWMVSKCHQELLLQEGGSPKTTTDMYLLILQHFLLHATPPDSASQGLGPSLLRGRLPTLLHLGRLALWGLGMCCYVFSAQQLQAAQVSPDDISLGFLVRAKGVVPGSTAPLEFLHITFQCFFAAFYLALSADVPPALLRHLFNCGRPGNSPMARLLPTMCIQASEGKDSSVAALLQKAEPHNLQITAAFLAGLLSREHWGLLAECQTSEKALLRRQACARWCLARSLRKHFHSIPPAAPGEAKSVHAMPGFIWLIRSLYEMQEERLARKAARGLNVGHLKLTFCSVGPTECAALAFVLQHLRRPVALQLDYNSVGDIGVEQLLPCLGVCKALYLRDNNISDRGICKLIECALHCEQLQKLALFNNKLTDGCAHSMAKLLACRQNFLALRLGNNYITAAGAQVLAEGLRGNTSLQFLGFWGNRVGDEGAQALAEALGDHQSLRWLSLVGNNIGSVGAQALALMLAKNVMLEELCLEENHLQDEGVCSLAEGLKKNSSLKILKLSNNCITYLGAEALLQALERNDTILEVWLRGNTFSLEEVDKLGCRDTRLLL
Assay [12] relates to HEK293. Description: cells. To be noted: Homo sapiens. In kind it is functional, cell-based.
Assay [13] concerns HEK293. The experiment in a line: cells. It is filed as functional, cell-based. To be noted: Homo sapiens. The source holds these as a separate data set.
In assay [14] the test system is BJ. The experiment in a line: BJ-TERT-LT-ST fibroblast viability loss – cell-based, RAS-independent, luminescence, dose response (AID 1935).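 Note: BJ fibroblasts immortalized with TERT plus LT and ST oncogenes.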 Particulars: Homo sapiens. In kind it is functional.
Assay [15] deals with INS1. Description: INS-1E survival protection against cytokine death – cell-based, luminescence, retest, dose response (AID 449756).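 Note: cell death triggered by IL-1 beta plus TNF-alpha plus IFN-gamma mixture; protective hits raise ATP signal compared with cytokine alone wells.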 To be noted: Rattus norvegicus. It is filed as functional.
Assay [16] in a line: viability of PTEN-deleted HCT116 cells – cell-based, HCT116 PTEN knockout, dose response (AID 1047).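 Note: HCT116 colon tumor cells with PTEN knocked out; cells exposed to compound for 60 hours before readout; potency for loss of cell viability measured by luminescence.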 In kind it is functional.
Assay [17] in a line: DRD fibroblast viability loss – cell-based, non-viral oncogenic, luminescence, dose response (AID 1934). To be noted: Homo sapiens. In kind it is functional.
Assay [18] concerns BJ. The experiment in a line: cells. It is filed as functional, cell-based. To be noted: Homo sapiens.
Assay [19] has as its target Heat shock protein HSP 90-alpha (Homo sapiens, UniProt P07900). In kind it is functional, organism-based.
The nature of assay [20]: Trypanosoma cruzi growth suppression in host cells – NIH3T3 host cells, beta-gal luminescence, confirmation (AID 2044).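 Note: intracellular parasites grown in NIH/3T3 mouse fibroblasts as host cells; luminescent beta-galactosidase reporter signal from transgenic T. cruzi replicating inside host cells; inhibitors lower the luminescence signal.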 In kind it is functional, cell-based.
The nature of assay [21]: cells. In kind it is functional.
The nature of assay [22]: HepG2 cell cytotoxicity, dose response, cytotoxicity control for non-replicating M. tuberculosis project (AID 489018). In kind it is functional. Particulars: Mycobacterium tuberculosis.
Assay [23] is described as follows: reduction of Shn3 3'UTR-driven luciferase in osteoblasts – cell-based, Clone20 osteoblasts, firefly luciferase, cherry-picked, dose response (AID 624132).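 Note: firefly luciferase luminescence from reporter carrying the Shn3 3'UTR in osteoblasts.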 In kind it is functional.
Assay [24] relates to HEK293. The experiment in a line: inhibition of NOD1-driven NF-kB reporter – cell-based, luminescence, uHTS, primary screen (AID 1578). In kind it is functional. To be noted: Homo sapiens.
Assay [25] deals with BJ. The experiment in a line: BJ-TERT fibroblast viability loss – cell-based, RAS-independent, luminescence, dose response (AID 1933). Particulars: Homo sapiens. In kind it is functional.
Assay [26] can be described thus: THP-1 cell cytotoxicity, dose response, cytotoxicity control for non-replicating M. tuberculosis project (AID 489025). It is filed as functional.
The nature of assay [27]: non-specific 3'UTR reporter inhibition in Clone20-Shn3RL – cell-based, Renilla luciferase, cherry-picked, counter-screen for Shn3 inhibitor project, dose response (AID 624133). It is filed as functional.
Assay [28] relates to HEK293. The experiment in a line: NOD2 signaling inhibitors in MDP-stimulated cells, cell-based, uHTS, luminescence (AID 2001). In kind it is functional. To be noted: Homo sapiens.
The target of assay [29] is FAD-linked sulfhydryl oxidase ALR (Homo sapiens, UniProt P55789). Description: ALR-catalysed DTT oxidation blockers – biochemical, H2O2 detection, luminescence, cherry-pick, dose response (AID 493248).
Chain of FAD-linked sulfhydryl oxidase ALR (P55789 whole entry): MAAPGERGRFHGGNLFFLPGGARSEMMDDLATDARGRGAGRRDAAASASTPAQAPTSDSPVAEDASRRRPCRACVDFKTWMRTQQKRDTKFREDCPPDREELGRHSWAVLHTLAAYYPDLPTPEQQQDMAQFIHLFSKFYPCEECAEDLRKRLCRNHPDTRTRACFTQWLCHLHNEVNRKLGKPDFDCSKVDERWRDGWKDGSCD
A short description of assay [30]: loss of viability in HepG2 cells – cell-based, CellTiter-Glo, cherry-picked, cytotoxicity control for Shn3 inhibitor project, dose response (AID 624134). In kind it is functional.
The subject of assay [31] is HEK293. The experiment in a line: cells. It is filed as functional, cell-based. To be noted: Homo sapiens. This is another data set of the same source.
Assay [32] can be described thus: Vero E6 cell cytotoxicity, dose response, cytotoxicity control for non-replicating M. tuberculosis project, secondary assay (AID 492998). It is filed as functional, VeroE6. Particulars: Vero C1008.
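Throughout, for Absolute IC50 (XBP1): confirmatory dose-response counter-screen serving a CHOP assay.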

Chain of DNA damage-inducible transcript 3 protein (P35639 whole entry): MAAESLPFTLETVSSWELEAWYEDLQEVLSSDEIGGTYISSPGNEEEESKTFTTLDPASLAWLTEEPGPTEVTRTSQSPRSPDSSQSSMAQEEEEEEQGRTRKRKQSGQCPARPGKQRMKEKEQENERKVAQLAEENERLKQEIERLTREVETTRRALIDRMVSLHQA
Chain of Alkaline phosphatase, placental type (P05187 whole entry): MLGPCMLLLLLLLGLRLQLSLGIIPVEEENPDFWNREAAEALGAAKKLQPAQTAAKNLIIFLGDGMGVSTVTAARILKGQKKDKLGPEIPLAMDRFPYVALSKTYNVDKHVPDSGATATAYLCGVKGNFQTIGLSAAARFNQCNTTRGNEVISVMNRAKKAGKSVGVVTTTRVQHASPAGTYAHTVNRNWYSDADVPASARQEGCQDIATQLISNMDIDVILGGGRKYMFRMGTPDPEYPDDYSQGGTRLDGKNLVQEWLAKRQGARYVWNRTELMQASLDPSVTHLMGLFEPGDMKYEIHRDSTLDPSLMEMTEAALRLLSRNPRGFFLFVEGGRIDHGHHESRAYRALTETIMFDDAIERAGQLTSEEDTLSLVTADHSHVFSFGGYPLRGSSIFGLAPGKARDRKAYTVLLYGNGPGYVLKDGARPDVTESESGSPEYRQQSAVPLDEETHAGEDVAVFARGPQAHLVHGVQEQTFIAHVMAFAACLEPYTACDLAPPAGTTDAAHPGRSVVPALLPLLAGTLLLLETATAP
Chain of X-box-binding protein 1 (P17861 whole entry): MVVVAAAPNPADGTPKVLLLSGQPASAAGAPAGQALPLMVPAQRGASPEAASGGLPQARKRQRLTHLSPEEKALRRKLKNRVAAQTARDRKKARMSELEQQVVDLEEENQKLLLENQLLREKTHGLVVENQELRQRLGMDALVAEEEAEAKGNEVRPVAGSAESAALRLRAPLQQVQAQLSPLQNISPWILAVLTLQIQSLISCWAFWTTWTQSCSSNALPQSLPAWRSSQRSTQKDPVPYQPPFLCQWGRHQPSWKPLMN

Regarding `O=C(CSC1c2ccccc2-c2ccccc21)N/N=C/c1ccccc1`, the “Absolute IC50 (XBP1)” value in [1] is 10 µM. In addition, the “Absolute IC50 (CHOP)” value in assay [2] worked out at 10 µM.

In the case of `CC(C)Cc1nc(N)nn1-c1ccccc1`, the IC50 in assay [3] is > 100 µM (inactive); in assay [4], > 100 µM (not active); in assay [5] it was > 100 µM (inactive).

With `CN(C)Cc1c(O)ccc2c1O/C(=C\C=C\c1ccccc1)C2=O`, the AC50 in [6], in assay [7] and in [8] was > 350 µM (inactive) throughout.

As for `O=S1(=O)C=C(Sc2nnc(-c3ccccc3)o2)c2ccccc21`, the EC50 in assay [9] is 2.33 µM (active); in [10], 2.8 µM (active); in assay [11], > 20 µM (inactive); in assay [14], 2.8 µM (inconclusive); in assay [16] it was 2.38 µM (active); in assay [17], 4.19 µM (active). The EC50 was 7.16 µM (inconclusive) in assay [18], 0.941 µM (active) in assay [20], > 20 µM (inactive) in [24] and 1.48 µM (active) in [25]. Besides, the IC50 in assay [12] is > 20 µM (inactive); in assay [13] it was > 20 µM (inactive); in assay [21], 1.13 µM (active); in assay [28], 6.48 µM (inactive); in assay [31] it was 5.52 µM (active). The AC50 is 7.3 µM (active) in assay [15]; 2.9 µM (active) in [19]; 1.7 µM (active) in assay [23]; 4 µM (active) in assay [27]; 0.281 µM (active) in assay [29]; 8.89 µM (active) in [30]. Besides, the CC50 was 18.5 µM (active) in assay [22], 6.02 µM (active) in assay [26] and 2.87 µM (active) in [32].
